# Measurements taken from ChEMBL document CHEMBL3832024, “DailyMed|setid=d9db2fd3-a668-4d37-9082-18f6ceb8c3cb | CLARITHROMYCIN - clarithromycin tablet, film coated, extended release|Dispensing Solutions, Inc”.
# Where “and” joins values, the source holds several entries; their conditions need not be identical. Equal values may be shown once.
# Key:
# Format in all cases: ADME, organism-based
# Homo sapiens [1] = experiment: (§1) Evaluation of pharmacokinetic parameters for Clarithromycin following multiple oral doses of Clarithromycin tablets.; set-up: dose 250 mg, dose 500 mg, dose 1000 mg, route oral; conditions: in vivo, po, dosed compound id 21, dosed compound name CLARITHROMYCIN, regimen Every 12h; for Excretion: tissue Urine
# [2] = as §1; set-up: dose 250 mg, dose 500 mg, dose 1000 mg, route oral; conditions: human, in vivo, dosed compound id 21, dosed compound name CLARITHROMYCIN, route oral
# Homo sapiens [3] = experiment: (§2) Tmax for Clarithromycin evaluated after a single oral dose of 500 mg Clarithromycin tablets to fed and fasted subjects; conditions: in vivo, po, dietary status Fasting, dosed compound id 21, dosed compound name CLARITHROMYCIN, regimen Single dose, tissue Plasma
# [4] = as §2; conditions: human, in vivo, dietary status Fed, dosed compound id 21, dosed compound name CLARITHROMYCIN, regimen Single dose, tissue Plasma
# Homo sapiens [5] = experiment: Evaluation of pharmacokinetic parameters for 14 OH-Clarithromycin following multiple oral doses of Clarithromycin tablets.; set-up: dose 250 mg, dose 500 mg, dose 1000 mg, route oral; conditions: in vivo, dosed compound id 21, dosed compound name CLARITHROMYCIN, tissue Plasma
Structure (SMILES),Excretion (Homo sapiens [1]; at 250 mg) [%],Excretion (Homo sapiens [1]; at 500 mg) [%],"t1/2 (Homo sapiens [1]; dose 250 mg, tissue Plasma) [h]","Cmax ss (Homo sapiens [1]; gender male and female, tissue Plasma)","Cmax ss (Homo sapiens [1]; sampling time1 3 days, tissue Plasma)","dose excreted ([2]; po, at 250 mg, regimen Every 12h, tissue Urine, read-out: Excretion) [%]","Tmax ([2]; dose 500 mg, gender male and female, regimen Every 24h, tissue Plasma) [h]","half-life ([2]; dose 500 mg, regimen Every 12h, tissue Plasma) [h]",Tmax (Homo sapiens [3]) [h],Tmax [4] [h],"t1/2 (Homo sapiens [5]; dose 250 mg, regimen Every 12h, route oral) [h]","Tmax (Homo sapiens [5]; dose 500 mg, gender male and female, regimen Every 24h, route oral) [h]","t1/2 (Homo sapiens [5]; dose 500 mg, regimen Every 12h, route oral) [h]","Cmax ss (Homo sapiens [5]; gender male and female, regimen Every 24h) [ng/mL]",Cmax ss (Homo sapiens [5]; regimen Every 12h)
CC[C@H]1OC(=O)[C@H](C)[C@@H](O[C@H]2C[C@@](C)(OC)[C@@H](O)[C@H](C)O2)[C@H](C)[C@@H](O[C@@H]2O[C@H](C)C[C@H](N(C)C)[C@H]2O)[C@](C)(OC)C[C@@H](C)C(=O)[C@H](C)[C@@H](O)[C@]1(C)O [CLARITHROMYCIN],20,30,3 to 4,2000 to 4000 ng/mL and 5000 to 10000 ng/mL,1000 to 2000 ng/mL and 3000 to 4000 ng/mL,40,5 to 6,5 to 7,2,2.5,–,–,–,–,–
CO[C@]1(C)C[C@@H](C)C(=O)[C@H](C)[C@@H](O)[C@](C)(O)[C@@H](C(C)O)OC(=O)[C@H](C)[C@@H](O[C@H]2C[C@@](C)(OC)[C@@H](O)[C@H](C)O2)[C@H](C)[C@H]1O[C@@H]1O[C@H](C)C[C@H](N(C)C)[C@H]1O (stereo not given in full),–,–,–,–,–,–,–,–,–,–,5 to 6,6,7 to 9,800,600 ng/mL and 1000 ng/mL
